Assay results reported in EPA's aquatic toxicity sets.

System: Tetrahymena pyriformis
Experiment: 48 h IGC50 (-log10 mol/L); higher = more toxic

| Compound | 48 h IGC50 (-log10 mol/L) |
| --- | --- |
| CC(C)(C)C(=O)CCl | 4.27 |
| OCc1ccc2ccccc2c1 | 3.39 |
| CCC(N)CC | 2.19 |
| c1cnc2ccc3ncccc3c2c1 | 4.14 |
| N#CSCc1ccccc1 | 4.05 |
| c1ccc2nc3ccccc3nc2c1 | 4.4 |
| CCC(C)CN (stereo unspecified) | 2.52 |
| Cc1ccc(C)c(O)c1 | 3.14 |
| COCCCN | 1.23 |
| N#CC(Cl)Cl | 3.97 |
| CCC(C)C(=O)OC (stereo unspecified) | 1.83 |
| O=C(Cc1ccccc1)c1ccc(O)cc1 | 4.07 |
| N#CCBr | 5.23 |
| N#CC(Cl)(Cl)Cl | 4.88 |
| CCC(=O)N(C)C | 1.43 |
| CCCCC(CC)COC(=O)c1ccc(O)cc1 (stereo unspecified) | 5.51 |
| COc1ccc(C(=O)c2ccccc2)c(O)c1 | 4.42 |
| Cc1cc([N+](=O)[O-])ccc1Br | 4.16 |
| Sc1ccccc1 | 4.66 |
| CCC(C)C(N)CO (stereo unspecified) | 2.34 |
| N#CCCCc1ccccc1 | 3.15 |
| Cc1nccnc1C | 2.13 |

| Compound | 48 h IGC50 (-log10 mol/L) |
| --- | --- |
| Oc1ccc(-c2ccc(Br)cc2)cc1 | 5.31 |
| Nc1cc(F)c([N+](=O)[O-])cc1[N+](=O)[O-] | 4.69 |
| Cc1ccc(Cl)cc1N | 3.5 |
| CC#CC(=O)OCC | 3.51 |
| O=C(CBr)c1ccsc1 | 5.22 |
| CCCCCC#CC(=O)O | 2.94 |
| N#CCc1ccc(N)cc1 | 2.24 |
| CCCCNC | 2.32 |
| CCC/C=C/CO | 2.53 |
| O=C(O)c1ccc(Cl)c(Cl)c1 | 3.31 |
| Oc1c(-c2ccccc2)cccc1-c1ccccc1 | 5.11 |
| CCCCC(C)O (stereo unspecified) | 2.07 |
| CCC(C)CC(=O)O (stereo unspecified) | 2.77 |
| CC#CC(=O)OC | 3.4 |
| N#Cc1ccc(Cl)c([N+](=O)[O-])c1 | 4.71 |
| C#CC(C)=O | 4.96 |
| CCOC(=O)C(C)C(=O)OCC | 2.49 |
| CCc1cccs1 | 2.57 |
| CCC(Br)C(=O)OC (stereo unspecified) | 4.02 |
| NC(=O)c1ccc([N+](=O)[O-])cc1 | 3.18 |
| CCC=C(C)C=O | 2.98 |
| ClCCc1ccccc1 | 3.17 |

| Compound | 48 h IGC50 (-log10 mol/L) |
| --- | --- |
| O=[N+]([O-])c1cc(Cl)cc(Cl)c1[N+](=O)[O-] | 5.42 |
| O=[N+]([O-])c1ccc(Br)c([N+](=O)[O-])c1 | 5.31 |
| C=CCCCO | 1.78 |
| OCCCCCc1ccccc1 | 3.42 |
| CC(C)=CC=O | 3.09 |
| OC1CCCCC1 | 2.23 |
| CC(=O)CCC(C)=O | 1.6 |
| CCC(C)(C)O | 1.83 |
| OCc1ccccc1Br | 3.1 |
| O=C(O)CCBr | 2.96 |
| O=C(c1ccccc1)c1ccc(Br)cc1 | 4.26 |
| CCc1ccc([N+](=O)[O-])cc1 | 3.43 |
| CC(C)CC(=O)O | 2.66 |
| Cc1ccc2ccccc2c1[N+](=O)[O-] | 4.04 |
| CCCCCCC(C)O (stereo unspecified) | 3 |
| CCCCCCCCCC=CCO | 5.09 |
| CC(C)(C)c1cc(N)cc(C(C)(C)C)c1 | 4.44 |
| COC(=O)c1ccccc1 | 3.23 |
| CC(C)C(N)CO (stereo unspecified) | 2.42 |
| CCCCCCC(=O)OC | 3.1 |
| CC(C)CC(N)=O | 1.34 |
| Cc1cccc(C=O)c1 | 3.08 |

| Compound | 48 h IGC50 (-log10 mol/L) |
| --- | --- |
| Cc1ccc(O)cc1C | 3.12 |
| N#Cc1ccccc1C#N | 2.66 |
| COC(=O)CC#N | 1.66 |
| C/C=C/C=C/C=O | 3.74 |
| CC1CCOC1=O (stereo unspecified) | 1.81 |
| O=[N+]([O-])c1cc(Cl)ccc1Cl | 4.13 |
| OCc1cccc2ccccc12 | 3.13 |
| OCCCCc1ccccc1 | 3.12 |
| OCc1cccc(Br)c1 | 3.37 |
| NC(=O)c1ccco1 | 1.56 |
| O=C(O)c1ccccc1Br | 2.53 |
| O=[N+]([O-])c1ccccc1Cl | 3.68 |
| C=C(C)C(=O)OCC(C)C | 2.72 |
| O=C(O)CCCBr | 2.23 |
| O=[N+]([O-])c1cccc(F)c1 | 3.2 |
| Nc1c(Cl)cc(Cl)cc1[N+](=O)[O-] | 4.26 |
| CCCC#CC(=O)OC | 3.76 |
| CCOC(=O)C(Br)C(C)C (stereo unspecified) | 3.02 |
| O=Cc1ccc([N+](=O)[O-])c(O)c1 | 3.27 |
| CCCCCC#N | 2.62 |
